# What was measured:
# healthy subjects [1] = test: Five-Dimensional Altered States of Consciousness (5D-ASC) questionnaire; type: in vivo, human; conditions: for 5D-ASC Anxiety, Mean difference / 5D-ASC Audio-visual synaesthesia, Mean difference / 5D-ASC Auditory alteration, Mean difference / 5D-ASC Blissful state, Mean difference / 5D-ASC Changed meaning of percepts, Mean difference / 5D-ASC Complex imagery, Mean difference / 5D-ASC Disembodiment, Mean difference / 5D-ASC Dread of ego dissolution, Mean difference / 5D-ASC Elementary imagery, Mean difference / 5D-ASC Experience of unity, Mean difference / 5D-ASC Impaired control and cognition, Mean difference / 5D-ASC Insightfulness, Mean difference / 5D-ASC Oceanic boundlessness, Mean difference / 5D-ASC Spiritual experience, Mean difference / 5D-ASC Vigilance reduction, Mean difference / 5D-ASC Visual restructuralisation, Mean difference: Post-Treatment Day 0
# Excerpt: In some embodiments, the Five Dimension Altered States of Consciousness questionnaire (5D-ASC) is utilized to evaluate the safety and/or efficacy of psilocybin. […] The 5 dimensions include oceanic boundlessness, anxious ego dissolution, visionary restructuralization, auditory alterations and reduction of vigilance.
# healthy subjects [2] = test: Toronto Empathy Questionnaire (TEQ); type: in vivo, human; conditions: Day 7
# Excerpt: In some embodiments, the Toronto Empathy Questionnaire (TEQ) is utilized to evaluate the safety and/or efficacy of psilocybin. The TEQ represents empathy as a primarily emotional process. […] The TEQ is a brief, reliable and valid instrument for the assessment of empathy. In some embodiments, after treating according to the methods of the disclosure, a subject's TEQ score increases by about 5%, about 10%, about 15%, about 20%, about 25%, about 30%, about 35%, about 40%, about 45%, about 50%, about 55%, about 60%, about 65%, about 70%, about 75%, about 80%, about 85%, about 90%, about 95%, or about 100%, about 110%, about 120%, about 130%, about 140%, about 150%, about 160%, about 170%, about 180%, about 190%, about 200%, about 210%, about 220%, about 230%, about 240%, about 250%, about 260%, about 270%, about 280%, about 290%, or about 300%, or more, compared to prior to treatment.
# The Pictorial Empathy Test (PET), Reading the Mind in the Eyes Test (RMET), Scale of Social Responsibility (SSR), Social Value Orientation (SVO), and Toronto Empathy Questionnaire (TEQ) were performed. Table 20 summarizes the results of the mixed model for repeated measures (MMRM) analysis for each of the aforementioned social cognition panel scales measured on Day 7 and Day 84 after study drug administration.
# [3] = Psilocybin 25 mg, Post-Treatment Day 0, LS mean
smiles,measurement,setting,value
"CN(C)CCc1c[nH]c2cccc(OP(=O)(O)O)c12 [Psilocybin, psilocybin]","5D-ASC Complex imagery, Mean",healthy subjects [1]; [3],64.9
same,"5D-ASC Disembodiment, Mean",healthy subjects [1]; [3],53.8
same,"5D-ASC Dread of ego dissolution, Mean",healthy subjects [1]; [3],31.9
same,"5D-ASC Elementary imagery, Mean",healthy subjects [1]; [3],76.9
same,"5D-ASC Experience of unity, Mean",healthy subjects [1]; [3],60.9
same,"5D-ASC Impaired control and cognition, Mean",healthy subjects [1]; [3],32.7
same,"5D-ASC Insightfulness, Mean",healthy subjects [1]; [3],64.4
same,"5D-ASC Oceanic boundlessness, Mean",healthy subjects [1]; [3],62.9
same,"5D-ASC Spiritual experience, Mean",healthy subjects [1]; [3],57.9
same,"5D-ASC Vigilance reduction, Mean",healthy subjects [1]; [3],45.7
same,"5D-ASC Visual restructuralisation, Mean",healthy subjects [1]; [3],65.2
same,"5D-ASC Anxiety, Mean difference",healthy subjects [1]; Psilocybin 25 mg-10 mg,16.7
same,"5D-ASC Audio-visual synaesthesia, Mean difference",healthy subjects [1]; Psilocybin 25 mg-10 mg,0.7
same,"5D-ASC Auditory alteration, Mean difference",healthy subjects [1]; Psilocybin 25 mg-10 mg,10.5
same,"5D-ASC Blissful state, Mean difference",healthy subjects [1]; Psilocybin 25 mg-10 mg,2.8
same,"5D-ASC Changed meaning of percepts, Mean difference",healthy subjects [1]; Psilocybin 25 mg-10 mg,−0.5
same,"5D-ASC Complex imagery, Mean difference",healthy subjects [1]; Psilocybin 25 mg-10 mg,11.9
same,"5D-ASC Disembodiment, Mean difference",healthy subjects [1]; Psilocybin 25 mg-10 mg,1.1
same,"5D-ASC Dread of ego dissolution, Mean difference",healthy subjects [1]; Psilocybin 25 mg-10 mg,10.1
same,"5D-ASC Elementary imagery, Mean difference",healthy subjects [1]; Psilocybin 25 mg-10 mg,0.4
same,"5D-ASC Experience of unity, Mean difference",healthy subjects [1]; Psilocybin 25 mg-10 mg,6.5
same,"5D-ASC Impaired control and cognition, Mean difference",healthy subjects [1]; Psilocybin 25 mg-10 mg,4.7
same,"5D-ASC Insightfulness, Mean difference",healthy subjects [1]; Psilocybin 25 mg-10 mg,10.5
same,"5D-ASC Oceanic boundlessness, Mean difference",healthy subjects [1]; Psilocybin 25 mg-10 mg,7.2
same,"5D-ASC Spiritual experience, Mean difference",healthy subjects [1]; Psilocybin 25 mg-10 mg,9.2
same,"5D-ASC Vigilance reduction, Mean difference",healthy subjects [1]; Psilocybin 25 mg-10 mg,10.3
same,"5D-ASC Visual restructuralisation, Mean difference",healthy subjects [1]; Psilocybin 25 mg-10 mg,6.1
same,"5D-ASC Anxiety, Mean difference",healthy subjects [1]; Psilocybin 25 mg-Placebo,31.3
same,"5D-ASC Audio-visual synaesthesia, Mean difference",healthy subjects [1]; Psilocybin 25 mg-Placebo,67.3
same,"5D-ASC Auditory alteration, Mean difference",healthy subjects [1]; Psilocybin 25 mg-Placebo,29.1
same,"5D-ASC Blissful state, Mean difference",healthy subjects [1]; Psilocybin 25 mg-Placebo,53.6
same,"5D-ASC Changed meaning of percepts, Mean difference",healthy subjects [1]; Psilocybin 25 mg-Placebo,43.9
same,"5D-ASC Complex imagery, Mean difference",healthy subjects [1]; Psilocybin 25 mg-Placebo,60.5
same,"5D-ASC Disembodiment, Mean difference",healthy subjects [1]; Psilocybin 25 mg-Placebo,46.9
same,"5D-ASC Dread of ego dissolution, Mean difference",healthy subjects [1]; Psilocybin 25 mg-Placebo,30.6
same,"5D-ASC Elementary imagery, Mean difference",healthy subjects [1]; Psilocybin 25 mg-Placebo,64.0
same,"5D-ASC Experience of unity, Mean difference",healthy subjects [1]; Psilocybin 25 mg-Placebo,53.6
same,"5D-ASC Impaired control and cognition, Mean difference",healthy subjects [1]; Psilocybin 25 mg-Placebo,30.9
same,"5D-ASC Insightfulness, Mean difference",healthy subjects [1]; Psilocybin 25 mg-Placebo,58.2
same,"5D-ASC Oceanic boundlessness, Mean difference",healthy subjects [1]; Psilocybin 25 mg-Placebo,54.9
same,"5D-ASC Spiritual experience, Mean difference",healthy subjects [1]; Psilocybin 25 mg-Placebo,53.7
same,"5D-ASC Vigilance reduction, Mean difference",healthy subjects [1]; Psilocybin 25 mg-Placebo,30.4
same,"5D-ASC Visual restructuralisation, Mean difference",healthy subjects [1]; Psilocybin 25 mg-Placebo,58.7
same,TEQ change from baseline (LS mean),healthy subjects [2]; psilocybin 10 mg,−0.1
same,"TEQ change from baseline, LS mean difference",healthy subjects [2]; psilocybin 10 mg - placebo,0.1
same,TEQ change from baseline (LS mean),healthy subjects [2]; psilocybin 25 mg,0.0
same,"TEQ change from baseline, LS mean difference",healthy subjects [2]; psilocybin 25 mg - 10 mg,0.1
same,"TEQ change from baseline, LS mean difference",healthy subjects [2]; psilocybin 25 mg - placebo,0.2
